Experiments:
[1] = tested on: MDA-MB-231; test: Cell growth inhibition, 4-day proliferation assay, MDA-MB-231; format: cell-based; details: Homo sapiens, MDA-MB-231; WST-8 assay, Table 7; read-out: Cell growth inhibition (IC50 (nM)) MDA-MB-231
In short: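 WST-8 colorimetric read-out (absorbance 450 nm after 1-2 h) after 4-day compound exposure of 3,000-10,000 cells/well at 37 °C; IC50 from variable-slope sigmoid fit of DMSO-normalized signal.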

[2] = tested on: MOLM-13; test: Cell growth inhibition, 4-day proliferation assay, MOLM-13; format: cell-based; details: Homo sapiens, MOLM-13, WST-8 assay, Table 7; read-out: Cell growth inhibition (IC50 (nM)) MOLM-13
[3] = Plasma exposure after oral gavage in mice, LC-MS/MS; format: in vivo; details: mouse, plasma, mice, oral gavage 25 mg/kg; for concentration at 1 h: read-out: Plasma concentration (ng/mL) 1 h; for concentration at 3 h: read-out: Plasma concentration (ng/mL) 3 h; for concentration at 6 h: read-out: Plasma concentration (ng/mL) 6 h
Description: For a number of representative compounds in Table 5, their plasma exposures with oral administration in mice via oral gavage were determined by LC-MS/MS, with the data shown in Table 9.

[4] = molecular target: T1, recombinant BRD4 BD1 (Homo sapiens, UniProt O60885); test: Competitive fluorescence-polarization (FP) binding assay, BRD4 BD1; details: competitive FP, Table 6; read-out: IC50 as determinined in FP assays BRD4 BD1
T1 construct: for recombinant BRD4 BD1 and BRD4 BD2 proteins
Description: Fluorescence Polarization (FP) competitive binding studies were carried out using a FAM labeled fluorescent probe, see, e.g., Cpd. No. 350 of US 2014/0256706, to determine binding affinities of representative Compounds of the Disclosure for recombinant BRD4 BD1 and BRD4 BD2 proteins. Equilibrium dissociation constants (Kd) values of the fluorescent probe to BRD4 BD1 and BD2 proteins were determined from protein saturation experiments by monitoring the total fluorescence polarization of mixtures composed with the fluorescent probe at a fixed concentration and proteins with increasing concentrations up to full saturation. Serial dilutions of testing proteins were mixed with the fluorescent probe to a final volume of 200 μl in the assay buffer (100 mM phosphate buffer, pH=6.5, 0.01% Triton X-100 (Sigma, 282103) being added right before assays). Final fluorescent probe concentration was 1.5 nM for both proteins. Plates were incubated at room temperature for 30 minutes with gentle shaking to assure equilibrium. FP values in millipolarization units (mP) were measured using the Infinite M-1000 plate reader (Tecan U.S., Research Triangle Park, N.C.) in Microfluor 1 96-well, black, round-bottom plates (Thermo Scientific, Waltham, Mass.) at an excitation wavelength of 485 nm and an emission wavelength of 530 nm. Kd values of the fluorescent probe, which were calculated by fitting the sigmoidal dose-dependent FP increases as a function of protein concentrations using Graphpad Prism 6.0 software (Graphpad Software, San Diego, Calif.), are 5.5 and 3.0 nM to BDR4 BD1 and 2, respectively.
The IC50 and Ki values of compounds were determined in a competitive binding experiment. See US 2014/0256706. Mixtures of 10 μl of the tested compounds in assay buffer with 40% Ethylene Glycol and 190 μl of preincubated protein/probe complex solution in the assay buffer (100 mM potassium phosphate, pH 6.5, 0.01% Triton X-100) were added into assay plates which were incubated at room temperature for 30 minutes with gentle shaking. Final concentrations of proteins were 10 and 6 nM in assays for BRD4 BD1 and BD2, respectively. Final probe concentration is 1.5 nM in both assays. Negative controls containing protein/probe complex only (equivalent to 0% inhibition), and positive controls containing only free probes (equivalent to 100% inhibition), were included in each assay plate. FP values were measured as described above. IC50 values were determined by nonlinear regression fitting of the competition curves. Instead of being calculated from IC50 values as described before. Ki values of competitive inhibitors were obtained directly by nonlinear regression fitting as well, based upon the Kd values of the probe to different proteins, and concentrations of the proteins and probes in the competitive assays (US 2014/0256706; Wang, FEBS Lett. 360:111 (1995); Zhang et al., Analytical Biochemistry, 331:138 (2004)).
Representative compounds in Table 5 were evaluated for their binding affinities to BRD4 BD1 and BD2 proteins using the Competitive Fluorescence-Polarization (FP) Assays described in Example 6, with the data included in Table 6.

[5] = molecular target: T2, recombinant BRD4 BD2 (Homo sapiens, UniProt O60885); test: Competitive fluorescence-polarization (FP) binding assay, BRD4 BD2; details: competitive FP, Table 6; read-out: IC50 as determinined in FP assays BRD4 BD2
T2 construct: for recombinant BRD4 BD1 and BRD4 BD2 proteins

Compound | IC50 [1] | IC50 [2] | concentration at 1 h [3] | concentration at 3 h [3] | concentration at 6 h [3] | IC50 [4] | IC50 [5]
Cc1c(C#Cc2ccccn2)sc2c1C(c1ccc(Cl)cc1)=N[C@@H](CC(N)=O)c1nnc(C)n1-2 [Compound 109, (S)-2-(4-(4-chlorophenyl)-3,9-dimethyl-2-(pyridin-2-ylethynyl)-6H-thieno[3,2-f][1,2,4]triazolo[4,3-a][1,4]diazepin-6-yl)acetamide] | 2.57 nM | 7.2 nM | 2170 ng/mL | 609 ng/mL | 184 ng/mL | 3.8 nM | 282 nM
CCNC(=O)C[C@@H]1N=C(c2ccc(Cl)cc2)c2c(sc(C#Cc3ccccn3)c2C)-n2c(C)nnc21 [Compound 110, (S)-2-(4-(4-chlorophenyl)-3,9-dimethyl-2-(pyridin-2-ylethynyl)-6H-thieno[3,2-f][1,2,4]triazolo[4,3-a][1,4]diazepin-6-yl)-N-ethylacetamide] | 310 ± 100 nM | 47.7 nM | 1540 ng/mL | 1160 ng/mL | 123 ng/mL | 8.5 nM | 27.5 nM
Cc1c(C#Cc2ccccn2)sc2c1C(c1ccc(Cl)cc1)=N[C@@H](CC(=O)N1CCN(C)CC1)c1nnc(C)n1-2 [Compound 119, (S)-2-(4-(4-chlorophenyl)-3,9-dimethyl-2-(pyridin-2-ylethynyl)-6H-thieno[3,2-f][1,2,4]triazolo[4,3-a][1,4]diazepin-6-yl)-1-(4-methylpiperazin-1-yl)ethan-1-one] | 38.1 nM | 20.9 nM | 632 ng/mL | 370 ng/mL | 52 ng/mL | 6.9 nM | 140 nM
Cc1c(C#Cc2ccccn2)sc2c1C(c1ccc(Cl)cc1)=N[C@@H](CC(=O)Nc1ccc(O)cc1)c1nnc(C)n1-2 [Compound 125, (S)-2-(4-(4-chlorophenyl)-3,9-dimethyl-2-(pyridin-2-ylethynyl)-6H-thieno[3,2-f][1,2,4]triazolo[4,3-a][1,4]diazepin-6-yl)-N-(4-hydroxyphenyl)acetamide] | 132 nM | 31 nM | 2520 ng/mL | 407 ng/mL | 83 ng/mL | 10.2 nM | 13.9 nM
Cc1c(C#Cc2ccccn2)sc2c1C(c1ccc(Cl)cc1)=N[C@@H](CC(=O)N1CCOCC1)c1nnc(C)n1-2 [Compound 126, (S)-2-(4-(4-chlorophenyl)-3,9-dimethyl-2-(pyridin-2-ylethynyl)-6H-thieno[3,2-f][1,2,4]triazolo[4,3-a][1,4]diazepin-6-yl)-1-morpholinoethan-1-one] | 60.7 nM | 13.5 nM | 2910 ng/mL | 599 ng/mL | 473 ng/mL | 8.7 nM | 27.8 nM
Cc1c(C#Cc2ccccn2)sc2c1C(c1ccc(Cl)cc1)=N[C@@H](Cc1nnc(C(C)C)o1)c1nnc(C)n1-2 [Compound 135, (S)-2-((4-(4-chlorophenyl)-3,9-dimethyl-2-(pyridin-2-ylethynyl)-6H-thieno[3,2-f][1,2,4]triazolo[4,3-a][1,4]diazepin-6-yl)methyl)-5-isopropyl-1,3,4-oxadiazole] | 24.5 nM | 13.8 nM | – | – | – | 10 nM | 45 nM
Cc1c(C#Cc2ccccn2)sc2c1C(c1ccc(Cl)cc1)=N[C@@H](Cc1nnc(C3CC3)o1)c1nnc(C)n1-2 [Compound 136, (S)-2-((4-(4-chlorophenyl)-3,9-dimethyl-2-(pyridin-2-ylethynyl)-6H-thieno[3,2-f][1,2,4]triazolo[4,3-a][1,4]diazepin-6-yl)methyl)-5-cyclopropyl-1,3,4-oxadiazole] | 52.1 nM | 28.1 nM | – | – | – | 11.3 nM | 60.1 nM
Cc1nnc(C[C@@H]2N=C(c3ccc(Cl)cc3)c3c(sc(C#CC4CC4)c3C)-n3c(C)nnc32)o1 [Compound 143, (S)-2-((4-(4-chlorophenyl)-2-(cyclopropylethynyl)-3,9-dimethyl-6H-thieno[3,2-f][1,2,4]triazolo[4,3-a][1,4]diazepin-6-yl)methyl)-5-methyl-1,3,4-oxadiazole] | 6.59 nM | 6.06 nM | 3170 ng/mL | 2700 ng/mL | 3670 ng/mL | 8.86 nM | 21.6 nM
Cc1nnc(C[C@@H]2N=C(c3ccc(Cl)cc3)c3c(sc(C#CC(C)(C)O)c3C)-n3c(C)nnc32)o1 [Compound 144, (S)-4-(4-(4-chlorophenyl)-3,9-dimethyl-6-((5-methyl-1,3,4-oxadiazol-2-yl)methyl)-6H-thieno[3,2-f][1,2,4]triazolo[4,3-a][1,4]diazepin-2-yl)-2-methylbut-3-yn-2-ol] | 288 nM | 36.4 nM | 4160 ng/mL | 7580 ng/mL | 1120 ng/mL | 21.8 nM | 26.4 nM
Cc1nnc(C[C@@H]2N=C(c3ccc(Cl)cc3)c3c(sc(C#CC4CCNCC4)c3C)-n3c(C)nnc32)o1 [Compound 174, (S)-2-((4-(4-chlorophenyl)-3,9-dimethyl-2-(piperidin-4-ylethynyl)-6H-thieno[3,2-f][1,2,4]triazolo[4,3-a][1,4]diazepin-6-yl)methyl)-5-methyl-1,3,4-oxadiazole] | 9.43 nM | 3.1 nM | 56 ng/mL | 12 ng/mL | 3 ng/mL | 49.9 nM | 46 nM
Cc1nnc(C[C@@H]2N=C(c3ccc(Cl)cc3)c3c(sc(C#CC4CCN(C)CC4)c3C)-n3c(C)nnc32)o1 [Compound 175, (S)-2-((4-(4-chlorophenyl)-3,9-dimethyl-2-((1-methylpiperidin-4-yl)ethynyl)-6H-thieno[3,2-f][1,2,4]triazolo[4,3-a][1,4]diazepin-6-yl)methyl)-5-methyl-1,3,4-oxadiazole] | 3.96 nM | 5 nM | 413 ng/mL | 384 ng/mL | 68 ng/mL | 31.8 nM | 93.2 nM

Source: patent US11046709B2, “Fused 1,4-diazepines as BET bromodomain inhibitors” (THE REGENTS OF THE UNIVERSITY OF MICHIGAN, priority 2017, dated 2021)
